This is an account of results in EP4810061A1, “DEUTERATED CAMPTOTHECIN COMPOUND, AND PREPARATION AND USE THEREOF” (Shanghai Qilu Pharmaceutical Research and Development …, priority 2023, dated 2025).

Data set [1] in a line: In vitro plasma stability of payload compounds. In kind it is in vitro ADME, Human. The settings on record: 5 µM, 37°C. The method, then: (§1) 398 µL of plasma was taken and preheated to 37°C, then co-incubated for 15 minutes. 2 µL of the sample solution was added to the plasma to prepare a final sample concentration of 5 µM. The above solution was co-incubated at 37°C, and 50 µL aliquots were taken at 0, 15, 30, 60, and 120 minutes, followed by the addition of 450 µL of ice-cold acetonitrile (containing the internal standard). The solution was vortexed for 10 minutes, centrifuged, and the remaining content of the parent substrate was detected by the LC-MS/MS method. For specific results, refer to Table 4-1. Table 4-1. Plasma stability of the payload compounds of the present disclosure

Data set [2] is described as follows: In vitro plasma stability of payload compounds. In kind it is in vitro ADME, CD1 mouse. The note with it: 5 µM, 37°C. The method, then:
as §1

Data set [3] in a line: Repeated dose toxicity experiment of payload compounds in rats. The note with it: for Body weight and food consumption: 0.3 mg/kg and 1.0 mg/kg, 7 consecutive days; for rats died during recovery (of the animals with ataxia) / animals showed immediate ataxia after administration: tail vein injection for 7 consecutive days; for animals showed immediate ataxia after administration: main experimental group + TK group. In kind it is in vivo, SD rats. The method, then: Test sample preparation: The test sample was weighed according to the predetermined weight into a glass vial. First, 1 mL of DMSO was added and mixed until the test sample was dissolved, followed by the addition of 1 mL of Solutol HS-15. After mixing thoroughly, 8 mL of sodium chloride injection was added and vortex-mixed to obtain a clear and transparent solution.
SD rats (purchased from Beijing Vital River) were used as test animals. […] During the acclimation period, one cage-side observation was conducted daily; during the dosing period, all animals were subjected to clinical observations twice daily (morning and afternoon). Reactions in various aspects, including the skin, fur, eyes (sclera), ears, nose, oral cavity, chest, abdomen, urogenital area, limbs, as well as respiration, movement, urination, defecation (including urine and feces color), and behavioral changes, were recorded. Daily weight data of the main test group animals were documented. For animals scheduled for dissection, terminal body weight (fasted) was measured prior to dissection. The food intake of the test animals was also recorded. Table 6-1. Results of repeated dose toxicity experiments of the payload compounds of the present disclosure in rats
At the end of the administration, gross dissection was performed on D8 after the administration.

SMILES strings stand for the structures.

`[2H]C1([2H])OC(=O)[C@](O)(CC)c2cc3n(c(=O)c21)Cc1c-3nc2cc(F)c(C)c3c2c1[C@@H](NC(=O)C[C@H](C)O)CC3` [Compound 6]: in data set [1], the “Residual content of parent payload at 120 minutes (relative to 0 minutes) Human plasma” value is recorded as 94.89%. In data set [2], the “Residual content of parent payload at 120 minutes (relative to 0 minutes) CD1 mouse plasma” value turned out to be 105.93%.
Turning to `[2H]C1([2H])OC(=O)[C@](O)(CC)c2cc3n(c(=O)c21)Cc1c-3nc2cc(F)c(C)c3c2c1[C@@H](NC(=O)[C@H](O)C1CC1)CC3` [Compound 3], the “Residual content of parent payload at 120 minutes (relative to 0 minutes) Human plasma” value in data set [1] is on record as 105.54%. Besides, the “Residual content of parent payload at 120 minutes (relative to 0 minutes) CD1 mouse plasma” value in data set [2] came to 104.97%.
In the case of `CC[C@@]1(O)C(=O)OCc2c1cc1n(c2=O)Cc2c-1nc1cc(F)c(C)c3c1c2[C@@H](NC(=O)CO)CC3` [Dxd], the “Residual content of parent payload at 120 minutes (relative to 0 minutes) Human plasma” value in data set [1] worked out at 87.57%. Further, the “Residual content of parent payload at 120 minutes (relative to 0 minutes) CD1 mouse plasma” value in data set [2] worked out at 95.42%. Besides, the “Body weight and food consumption” value in data set [3] is “Slow/decreased body weight gain; decreased food consumption;”. In data set [3] (0.3 mpk dose group), the “rats died during recovery (of the animals with ataxia)” value is 40% and the “animals showed immediate ataxia after administration” value (from here on “animals showed immediate ataxia”) was 31%. Also, in data set [3] (1 mpk dose group), the “rats died during recovery (of the animals with ataxia)” value worked out at 40% and the “animals showed immediate ataxia” value was 31%.
For `[2H]C1([2H])OC(=O)[C@](O)(CC)c2cc3n(c(=O)c21)Cc1c-3nc2cc(F)c(C)c3c2c1[C@@H](NC(=O)C[C@@H](C)O)CC3` [Compound 5], the “Residual content of parent payload at 120 minutes (relative to 0 minutes) Human plasma” value in data set [1] is given as 107.73%. Besides, the “Residual content of parent payload at 120 minutes (relative to 0 minutes) CD1 mouse plasma” value in data set [2] came to 96.02%.
On to `[2H]C1([2H])OC(=O)[C@](O)(CC)c2cc3n(c(=O)c21)Cc1c-3nc2cc(F)c(C)c3c2c1[C@@H](NC(=O)CO)CC3` [Compound 2], for which the “Residual content of parent payload at 120 minutes (relative to 0 minutes) Human plasma” value in data set [1] is on record as 111.04%. In addition, the “Residual content of parent payload at 120 minutes (relative to 0 minutes) CD1 mouse plasma” value in data set [2] is 102.54%. For the same compound, the “Body weight and food consumption” value in data set [3] was “At the same dose, the effects of compound 2 and Dxd on rat body weight and food consumption were essentially comparable;”. The “animals showed immediate ataxia” value in data set [3] (0.3 mpk dose group) is “compound 2: 0.3 mpk dose group: 13% (2/16) of animals showed immediate ataxia after administration, followed by gradual recovery;”; in data set [3] (1 mpk dose group) it was “compound 2: 1 mpk dose group: 25% (4/16) of animals showed immediate ataxia after administration, followed by gradual recovery;”. In data set [3] (♀ rats, at the same dose, versus control (Dxd) group), the average food consumption result is on record as “for ♀ rats, at the same dose, the average food consumption of the compound 2 group was higher than that of the control group;”.
